In paper PMC7586935 (Journal of Clinical Pharmacology, 2020):

Tests used:
[1] = Plasma pharmacokinetics after single oral dose; format: in vivo; details: human, oral, 400 mg
healthy volunteers [2] = test: ECG outlier analyses; format: in vivo, human; details: moxifloxacin 400 mg, n = 18
healthy volunteers [3] = test: ECG morphological analyses; format: in vivo, human; details: moxifloxacin 400 mg, n = 18
healthy volunteers [4] = test: Safety assessment: treatment-emergent adverse events; format: in vivo, human; details: moxifloxacin 400 mg, one subject
[5] = test system: QT/QTc interval of healthy volunteers; test: Concentration-QTc

## COc1c(N2C[C@@H]3CCCN[C@@H]3C2)c(F)cc2c(=O)c(C(=O)O)cn(C3CC3)c12 [Moxifloxacin]
[1]
  AUC: 24700 ± 5240 ng·h/mL
  Cmax: 2760 ± 559 ng/mL
  Tmax: 1 h
Healthy volunteers [2]
  Heart rate: Bradycardic outliers: 0 n (%)
  Heart rate: Tachycardic outliers: 1 (6) n (%)
  PR interval: Outliers: 0 n (%)
  QRS interval: Outliers: 0 n (%)
  QTcF >30‐60 ms inc change from baseline: 2 (11) n (%)
  QTcF >60 ms inc change from baseline: 0 n (%)
  QTcF New >480 ms: 0 n (%)
  QTcF New >500 ms: 0 n (%)
Healthy volunteers [3]
  New ST‐segment depression changes: 1 (6) n (%)
  New ST‐segment elevation changes: 0 n (%)
  New atrial fibrillation: 0 n (%)
  New atrial flutter: 0 n (%)
  New second‐degree heart block: 0 n (%)
  New third‐degree heart block: 0 n (%)
Healthy volunteers [4]
  Somnolence, frequency of subjects: 5.6%
[5]; moxifloxacin 400 mg, mean Cmax 2758.3 ng/mL
  Predicted Mean Effect at Mean Cmax (placebo-corrected change from baseline QTcF, ΔΔQTcF): 15.2 ms
[5]; moxifloxacin plasma concentration, assay sensitivity
  Slope of placebo-adjusted change from baseline QTcF vs plasma concentration: 4.24 ms/[μg/mL]
